Experimental findings from PMC4755933 (Journal of medicinal chemistry, 2015) are described below.

One series addresses T1, TRIM24(PHD-bromo) (Homo sapiens, UniProt O15164).
T1 sequence (O15164 824-1006 limits assumed): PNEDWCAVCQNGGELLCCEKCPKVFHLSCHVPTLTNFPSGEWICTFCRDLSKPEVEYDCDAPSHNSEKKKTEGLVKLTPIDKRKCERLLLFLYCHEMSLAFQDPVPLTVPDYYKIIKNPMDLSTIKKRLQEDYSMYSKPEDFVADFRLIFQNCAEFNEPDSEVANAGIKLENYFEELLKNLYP
The following applies: TRIM24 AlphaLisa assay in HeLa cells, in words. For orientation: Alpha assays give light when donor and acceptor beads are brought close together.

The next series concerns the target T2, bromodomain of TRIM24 (Homo sapiens, UniProt O15164).
T2 sequence (O15164 899-1004 limits assumed): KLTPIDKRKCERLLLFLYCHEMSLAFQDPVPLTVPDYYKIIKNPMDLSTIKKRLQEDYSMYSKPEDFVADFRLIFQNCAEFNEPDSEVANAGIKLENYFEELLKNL
The series is described as follows: AlphaScreen biochemical bromodomain-H3K23. The series is classed as binding. The following applies: from TRIM24 IC50.

The nature of series [1]: CACO-2 permeability assay. A general note: Caco-2 monolayers are a common model of the intestinal barrier.
The test system of another series is panel of 32 bromodomains. As to conditions: 1 μM concentration.

With `Cn1cnc(S(=O)(=O)Nc2cc3c(cc2Oc2ccc(OCc4ccccc4)cc2)n(C)c(=O)n3C)c1` [Compound 6, N-{6-[4-(benzyloxy)phenoxy]-1,3-dimethyl-2-oxo-2,3-dihydro-1H-1,3-benzodiazol-5-yl}-1-methyl-1H-imidazole-4-sulfonamide], on TRIM24(PHD-bromo), the cellular activity result is on record as “no cellular activity”.

In the case of `COc1ccc(Oc2cc3c(cc2NS(=O)(=O)c2ccccc2)n(C)c(=O)n3C)cc1` [Compound 5g], the “ligand efficiency (LE)” value at bromodomain of TRIM24 is 0.26.

For the molecule `COc1ccc(S(=O)(=O)Nc2cc3c(cc2Oc2cccc(OCc4ccccc4)c2)n(C)c(=O)n3C)cc1OC` [Compound 7b, N-{6-[3-(benzyloxy)phenoxy]-1,3-dimethyl-2-oxo-2,3-dihydro-1H-1,3-benzodiazol-5-yl}-3,4-dimethoxybenzene-1-sulfonamide], the “ligand efficiency (LE)” value at bromodomain of TRIM24 is listed as 0.23. For the same molecule, the “CACO-2 flux from the apical to basolateral side (Papp)” value in series [1] came out at 21 Papp×10^−6 cm·s^−1.

With `CCCOc1cc(OCCCCN(C)C)cc(Oc2cc3c(cc2NS(=O)(=O)c2ccc(OC)c(OC)c2)n(C)c(=O)n3C)c1` [Compound 8i, N-(6-{3-[4-(dimethylamino)butoxy]-5-propoxyphenoxy}-1,3-dimethyl-2-oxo-2,3-dihydro-1H-1,3-benzodiazol-5-yl)-3,4-dimethoxybenzene-1-sulfonamide], the “interactions against 26 other bromodomains” value with panel of 32 bromodomains is on record as “No interactions were detected”.

Regarding `Cn1c(=O)n(C)c2cc(NS(=O)(=O)c3ccc(C4CCCCC4)cc3)ccc21` [Compound 5e, 4-cyclohexyl-N-(1,3-dimethyl-2-oxo-2,3-dihydro-1H-1,3-benzodiazol-5-yl)benzene-1-sulfonamide], the “ligand efficiency (LE)” value at bromodomain of TRIM24 stood at 0.28.

With `CCCOc1cccc(Oc2cc3c(cc2NS(=O)(=O)c2ccc(OC)c(OC)c2)n(C)c(=O)n3C)c1` [Compound 7e, N-[1,3-dimethyl-2-oxo-6-(3-propoxyphenoxy)-2,3-dihydro-1H-1,3-benzodiazol-5-yl]-3,4-dimethoxybenzene-1-sulfonamide], on bromodomain of TRIM24, the “ligand efficiency (LE)” value is 0.27.

`CC(C)COc1cccc(Oc2ccc3c(c2)n(C)c(=O)n3C)c1` [Compound 7j, 1,3-dimethyl-5-[3-(2-methylpropoxy)phenoxy]-2,3-dihydro-1H-1,3-benzodiazol-2-one]: on TRIM24(PHD-bromo), the cellular activity entry was “no cellular activity”.

On to `Cc1nc(-c2ccc3c(c2)CC(=O)N3C)cs1` [Compound 1], for which, at bromodomain of TRIM24, the “ligand efficiency (LE)” value was 0.41.
